Laboratory results as given in ChEMBL document CHEMBL1149268, “Structure-based design of potent and selective cell-permeable inhibitors of human beta-secretase (BACE-1)” (J Med Chem, 2004).
Calls of active or inactive are those of the source. No cut-off for these calls is given here.

How the values were obtained:
Beta-secretase 1 [1] = molecular target: T1, Beta-secretase 1 (Homo sapiens, UniProt P56817)
Beta-secretase 1 [2] = molecular target: T1, Beta-secretase 1; remark: listed apart in the source
Beta-secretase 2 = molecular target: T2, Beta-secretase 2 (Homo sapiens, UniProt Q9Y5Z0); assay: (§1) Inhibition of BACE2
T2 sequence (Q9Y5Z0 whole entry): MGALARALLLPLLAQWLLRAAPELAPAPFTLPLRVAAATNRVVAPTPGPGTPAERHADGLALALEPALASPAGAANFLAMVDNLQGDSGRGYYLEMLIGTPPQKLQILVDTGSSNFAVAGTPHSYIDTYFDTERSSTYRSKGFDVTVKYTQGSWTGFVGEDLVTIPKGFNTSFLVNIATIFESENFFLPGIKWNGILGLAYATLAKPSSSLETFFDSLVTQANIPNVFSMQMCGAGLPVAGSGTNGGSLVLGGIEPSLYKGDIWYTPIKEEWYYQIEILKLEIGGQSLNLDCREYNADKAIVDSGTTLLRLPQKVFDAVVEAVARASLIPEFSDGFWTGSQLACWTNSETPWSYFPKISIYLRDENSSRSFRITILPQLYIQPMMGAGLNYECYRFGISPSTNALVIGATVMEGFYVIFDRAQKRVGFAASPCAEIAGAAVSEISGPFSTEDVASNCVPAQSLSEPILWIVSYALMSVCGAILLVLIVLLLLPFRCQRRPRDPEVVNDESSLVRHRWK

Renin = molecular target: T3, Renin (Homo sapiens, UniProt P00797); assay: Inhibition of renin
T3 sequence (P00797 whole entry): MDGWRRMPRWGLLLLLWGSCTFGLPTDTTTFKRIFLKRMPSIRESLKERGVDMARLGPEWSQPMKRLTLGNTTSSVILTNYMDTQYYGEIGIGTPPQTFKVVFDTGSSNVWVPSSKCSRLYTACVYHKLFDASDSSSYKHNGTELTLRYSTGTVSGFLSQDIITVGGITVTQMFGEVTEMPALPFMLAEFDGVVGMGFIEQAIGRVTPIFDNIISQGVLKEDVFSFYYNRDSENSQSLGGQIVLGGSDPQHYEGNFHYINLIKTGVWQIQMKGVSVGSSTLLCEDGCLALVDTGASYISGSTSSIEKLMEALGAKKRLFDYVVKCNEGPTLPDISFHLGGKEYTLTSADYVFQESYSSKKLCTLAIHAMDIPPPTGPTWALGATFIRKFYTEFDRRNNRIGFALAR

[3] = molecular target: T4, Beta-secretase 2 (Homo sapiens) (UniProt Q9Y5Z0); assay: as §1
T4 sequence (whole entry): T2 sequence (Q9Y5Z0 whole entry)

T1 sequence (P56817 whole entry): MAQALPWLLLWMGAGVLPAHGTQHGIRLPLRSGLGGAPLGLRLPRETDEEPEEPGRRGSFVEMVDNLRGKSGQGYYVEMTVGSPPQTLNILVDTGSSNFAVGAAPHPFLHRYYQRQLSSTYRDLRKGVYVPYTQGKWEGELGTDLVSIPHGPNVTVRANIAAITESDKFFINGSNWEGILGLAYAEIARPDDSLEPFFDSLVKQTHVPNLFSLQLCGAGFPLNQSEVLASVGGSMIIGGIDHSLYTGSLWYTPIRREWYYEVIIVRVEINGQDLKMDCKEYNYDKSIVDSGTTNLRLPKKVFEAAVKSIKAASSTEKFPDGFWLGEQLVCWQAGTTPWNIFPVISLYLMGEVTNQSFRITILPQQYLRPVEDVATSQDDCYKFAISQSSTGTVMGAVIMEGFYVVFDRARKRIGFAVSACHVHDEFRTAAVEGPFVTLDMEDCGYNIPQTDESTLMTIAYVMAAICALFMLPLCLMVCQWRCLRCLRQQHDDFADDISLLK

Row | SMILES | IC50 (Beta-secretase 1 [1]) | IC50 (Beta-secretase 1 [2]) | IC50 (Beta-secretase 2) | IC50 (Renin) | Activity [3]
1 | C[C@@H](NC(=O)c1cc(C(=O)N[C@@H](Cc2ccccc2)[C@H](O)CNC2CC2)cc(N(C)S(C)(=O)=O)c1)c1ccc(F)cc1 | 19 nM | 10 nM | 69 nM | > 10000 nM | –
2 | C[C@@H](NC(=O)c1cc(C(=O)N[C@@H](Cc2ccccc2)[C@H](O)CNC2CC2)cc(N(C)S(=O)(=O)N(C)C)c1)c1ccccc1 | 9 nM | 14 nM | 110 nM | > 50000 nM | –
3 | C[C@@H](NC(=O)c1cc(NS(C)(=O)=O)cc(C(=O)N[C@@H](Cc2ccccc2)C(O)CNC2CC2)c1)c1ccc(F)cc1 (some centres undefined) | 1180 nM | 63 nM | 210 nM | > 50000 nM | –
4 | CCNC[C@@H](O)[C@H](Cc1ccccc1)NC(=O)c1cc(C(=O)N[C@H](C)c2ccc(F)cc2)cc(N(C)S(C)(=O)=O)c1 | 396 nM | 15 nM | 260 nM | > 50000 nM | –
5 | CC(C)S(=O)(=O)N(C)c1cc(C(=O)N[C@@H](Cc2ccccc2)[C@H](O)CNC2CC2)cc(C(=O)N[C@H](C)c2ccccc2)c1 | 25 nM | 41 nM | 360 nM | > 50000 nM | –
6 | C[C@@H](NC(=O)c1cc(C(=O)N[C@@H](Cc2ccccc2)[C@H](O)CNC(C)(C)C)cc(N(C)S(C)(=O)=O)c1)c1ccc(F)cc1 | 2120 nM | 15 nM | – | > 50000 nM | inactive
7 | C[C@@H](NC(=O)c1cc(C(=O)N[C@@H](Cc2ccccc2)[C@H](O)CN)cc(N(C)S(C)(=O)=O)c1)c1ccc(F)cc1 | 5390 nM | 23 nM | 443 nM | > 50000 nM | –
8 | C[C@@H](NC(=O)c1cc(C(=O)N[C@@H](Cc2ccccc2)C(O)CNC2CC2)cc(N(C)S(C)(=O)=O)c1)c1ccccc1 (some centres undefined) | – | – | – | > 50000 nM | –
